Results from patent publication US9695155B2, “Herbicidal substituted pyrimidinyloxy benzene compounds” (E. I. DU PONT DE NEMOURS AND COMPANY, priority 2013, dated 2017).

Experiments:
blackgrass = experiment: Test A postemergence; type: in vivo, Alopecurus myosuroides
Method in brief: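 Injury scores run from 0, no effect, to 100, complete control, judged by eye against untreated plants roughly 10 days after treatment. Chemicals carried a surfactant in a non-phytotoxic solvent and went onto loam–sand soil preemergence or onto one- to two-leaf seedlings postemergence.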

barnyardgrass = experiment: Test B flooded paddy test; type: in vivo, Echinochloa crus-galli; conditions: Flood, 250 g ai/ha, 0 to 100 scale where 0 is no effect and 100 is complete control
Method in brief: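 Greenhouse flooded-pot test: compounds dosed into 3 cm standing water over 2-leaf plants, flood held constant. Rated visually after 13–15 days on 0–100 (complete control = 100); a dash marks no test result.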

wheat, winter = experiment: Test C postemergence; type: in vivo, Triticum aestivum; conditions: for Wheat plant response rating: 31 g ai/ha
Method in brief: (§1)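 Sown in loam/sand → sprayed pre-emergence; or grown to 1–4 leaves in peat mix → sprayed post-emergence. Same solvent/surfactant formulation both ways. Greenhouse 13–15 d. Score 0–100 visual.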

lambsquarters = experiment: Test C postemergence; type: in vivo, Chenopodium album; conditions: for Lambsquarters plant response rating: 31 g ai/ha
Method in brief: as §1

morningglory = experiment: Test C postemergence; type: in vivo, Ipomoea coccinea; conditions: for Morningglory plant response rating: 31 g ai/ha
Method in brief: as §1

ragweed = experiment: Test C postemergence; type: in vivo, Ambrosia elatior; conditions: for Ragweed plant response rating: 31 g ai/ha
Method in brief: as §1

soybean = experiment: Test C postemergence; type: in vivo, Glycine max; conditions: for Soybean plant response rating: 31 g ai/ha
Method in brief: as §1

oilseed rape = experiment: Test C postemergence; type: in vivo, Brassica napus; conditions: for Oilseed Rape plant response rating: 31 g ai/ha
Method in brief: as §1

[1] = 125 g ai/ha, 0 to 100 scale where 0 is no effect and 100 is complete control
[2] = 16 g ai/ha, postemergence, 0 is no effect, 100 is complete control
[3] = 125 g ai/ha, postemergence, visual rating, scale 0 to 100 (0 no effect, 100 complete control)
[4] = Postemergence, 62 g ai/ha, scale 0 to 100 (0 no effect, 100 complete control)
[5] = 1000 g ai/ha, 0 to 100 scale, 0 no effect, 100 complete control
[6] = 31 g ai/ha, 0 to 100 scale, 0 no effect, 100 complete control
[7] = 8 g ai/ha, postemergence, 0 is no effect, 100 is complete control
[8] = postemergence, visual rating, scale 0 to 100 (0 no effect, 100 complete control), 13 to 15 days
[9] = Postemergence, 62 g ai/ha, scale 0 to 100 (0 no effect, 100 complete control), 13 to 15 days

Clc1cnc(Oc2cccc(Br)c2-n2cc(I)nn2)nc1 [Compound 117]
Plant response rating, Blackgrass (blackgrass; [1]): 40
Plant response rating, Blackgrass (blackgrass; 500 g ai/ha, 0 to 100 scale where 0 is no effect and 100 is complete control): 80
Plant response rating, Barnyardgrass (barnyardgrass): 0
Plant response rating (0 to 100), Wheat (wheat, winter; [2]): 0
Plant response rating, Wheat (wheat, winter; [3]): 20
Plant response rating, Wheat (wheat, winter; [4]): 5
Plant response rating (0 to 100), Lambsquarters (lambsquarters; [2]): 45
Plant response rating, Lambsquarters (lambsquarters; [3]): 75
Plant response rating, Lambsquarters (lambsquarters; [4]): 50
Plant response rating (0 to 100), Morningglory (morningglory; [2]): 80
Plant response rating, Morningglory (morningglory; [3]): 90
Plant response rating, Morningglory (morningglory; [4]): 90
Plant response rating (0 to 100), Ragweed (ragweed; [2]): 25
Plant response rating, Ragweed (ragweed; [3]): 60
Plant response rating, Ragweed (ragweed; [4]): 35
Plant response rating (0 to 100), Soybean (soybean; [2]): 35
Plant response rating, Soybean (soybean; [3]): 50
Plant response rating, Soybean (soybean; [4]): 50
Plant response rating (0 to 100), Oilseed Rape (oilseed rape; [2]): 25
Plant response rating, Oilseed Rape (oilseed rape; [3]): 70
Plant response rating, Oilseed Rape (oilseed rape; [4]): 60

FCc1cn(-c2ccccc2Oc2ncc(Cl)cn2)nn1 [Compound 123]
Plant response rating, Blackgrass (blackgrass; [5]): 90
Plant response rating, Barnyardgrass (barnyardgrass): 35
Plant response rating (0 to 100), Wheat (wheat, winter; [2]): 0
Plant response rating, Wheat (wheat, winter; [3]): 5
Plant response rating, Wheat (wheat, winter; [4]): 0
Plant response rating (0 to 100), Lambsquarters (lambsquarters; [2]): 60
Plant response rating, Lambsquarters (lambsquarters; [3]): 85
Plant response rating, Lambsquarters (lambsquarters; [4]): 85
Plant response rating (0 to 100), Morningglory (morningglory; [2]): 5
Plant response rating, Morningglory (morningglory; [3]): 75
Plant response rating, Morningglory (morningglory; [4]): 55
Plant response rating (0 to 100), Ragweed (ragweed; [2]): 35
Plant response rating, Ragweed (ragweed; [3]): 75
Plant response rating, Ragweed (ragweed; [4]): 70
Plant response rating (0 to 100), Soybean (soybean; [2]): 45
Plant response rating, Soybean (soybean; [3]): 90
Plant response rating, Soybean (soybean; [4]): 65
Plant response rating (0 to 100), Oilseed Rape (oilseed rape; [2]): 30
Plant response rating, Oilseed Rape (oilseed rape; [3]): 70
Plant response rating, Oilseed Rape (oilseed rape; [4]): 60

N#Cc1cnn(-c2c(Br)cccc2Oc2ncc(Cl)cn2)c1 [Compound 140]
Plant response rating, Blackgrass (blackgrass; [6]): 30
Blackgrass plant response rating (blackgrass; [1]): 70
Plant response rating, Barnyardgrass (barnyardgrass): 20
Plant response rating (0 to 100), Wheat (wheat, winter; [2]): 0
Plant response rating, Wheat (wheat, winter; [3]): 10
Plant response rating, Wheat (wheat, winter; [4]): 0
Plant response rating (0 to 100), Lambsquarters (lambsquarters; [2]): 35
Plant response rating, Lambsquarters (lambsquarters; [3]): 85
Plant response rating, Lambsquarters (lambsquarters; [4]): 80
Plant response rating (0 to 100), Morningglory (morningglory; [2]): 0
Plant response rating, Morningglory (morningglory; [3]): 70
Plant response rating, Morningglory (morningglory; [4]): 75
Plant response rating (0 to 100), Ragweed (ragweed; [2]): 25
Plant response rating, Ragweed (ragweed; [3]): 75
Plant response rating, Ragweed (ragweed; [4]): 60
Plant response rating (0 to 100), Soybean (soybean; [2]): 25
Plant response rating, Soybean (soybean; [3]): 75
Plant response rating, Soybean (soybean; [4]): 65
Plant response rating (0 to 100), Oilseed Rape (oilseed rape; [2]): 5
Plant response rating, Oilseed Rape (oilseed rape; [3]): 50
Plant response rating, Oilseed Rape (oilseed rape; [4]): 50

FCc1cccc(Oc2ncc(F)cn2)c1-n1cc(I)cn1 [Compound 152]
Plant response rating, Blackgrass (blackgrass; [6]): 50
Blackgrass plant response rating (blackgrass; [1]): 90
Plant response rating, Barnyardgrass (barnyardgrass): 0
Plant response rating (0 to 100), Wheat (wheat, winter; [7]): 0
Plant response rating (0 to 100), Wheat (wheat, winter; [2]): 0
Wheat plant response rating (wheat, winter; [8]): 0
Plant response rating (0 to 100), Lambsquarters (lambsquarters; [7]): 60
Plant response rating (0 to 100), Lambsquarters (lambsquarters; [2]): 40
Lambsquarters plant response rating (lambsquarters; [8]): 80
Plant response rating (0 to 100), Morningglory (morningglory; [7]): 0
Plant response rating (0 to 100), Morningglory (morningglory; [2]): 10
Morningglory plant response rating (morningglory; [8]): 40
Plant response rating (0 to 100), Ragweed (ragweed; [7]): 15
Plant response rating (0 to 100), Ragweed (ragweed; [2]): 10
Ragweed plant response rating (ragweed; [8]): 40
Plant response rating (0 to 100), Soybean (soybean; [7]): 30
Plant response rating (0 to 100), Soybean (soybean; [2]): 35
Soybean plant response rating (soybean; [8]): 60
Plant response rating (0 to 100), Oilseed Rape (oilseed rape; [7]): 5
Plant response rating (0 to 100), Oilseed Rape (oilseed rape; [2]): 35
Oilseed Rape plant response rating (oilseed rape; [8]): 60

Clc1cnc(Oc2ccccc2-n2cc(C3CC3)nn2)nc1 [Compound 160, 5-chloro-2-[2-(4-cyclopropyl-1H-1,2,3-triazol-1-yl)phenoxy]pyrimidine]
Plant response rating, Blackgrass (blackgrass; [5]): 100
pest or weed control at 250 g/ha (barnyardgrass; Echinochloa crus-galli, read-out: Plant response rating, Barnyardgrass): 35%
Wheat plant response rating (wheat, winter; [8]): 5
plant injury at 16 g/ha (wheat, winter; Triticum aestivum, post-emergence, 16 g ai/ha, postemergence, 0 is no effect, 100 is complete control, read-out: Plant response rating (0 to 100), Wheat): 0%
plant injury at 125 g/ha (wheat, winter; Triticum aestivum, post-emergence, 125 g ai/ha, postemergence, visual rating, scale 0 to 100 (0 no effect, 100 complete control), read-out: Plant response rating, Wheat): 5%
plant injury at 62 g/ha (wheat, winter; Triticum aestivum, post-emergence, Postemergence, 62 g ai/ha, scale 0 to 100 (0 no effect, 100 complete control), read-out: Plant response rating, Wheat): 5%
Lambsquarters plant response rating (lambsquarters; [8]): 65
pest or weed control at 16 g/ha (lambsquarters; Chenopodium album, post-emergence, 16 g ai/ha, postemergence, 0 is no effect, 100 is complete control, read-out: Plant response rating (0 to 100), Lambsquarters): 65%
pest or weed control at 125 g/ha (lambsquarters; Chenopodium album, post-emergence, 125 g ai/ha, postemergence, visual rating, scale 0 to 100 (0 no effect, 100 complete control), read-out: Plant response rating, Lambsquarters): 95%
pest or weed control at 62 g/ha (lambsquarters; Chenopodium album, post-emergence, Postemergence, 62 g ai/ha, scale 0 to 100 (0 no effect, 100 complete control), read-out: Plant response rating, Lambsquarters): 70%
Morningglory plant response rating (morningglory; [8]): 75
pest or weed control at 16 g/ha (morningglory; Ipomoea, post-emergence, 16 g ai/ha, postemergence, 0 is no effect, 100 is complete control, read-out: Plant response rating (0 to 100), Morningglory): 5%
pest or weed control at 125 g/ha (morningglory; Ipomoea, post-emergence, 125 g ai/ha, postemergence, visual rating, scale 0 to 100 (0 no effect, 100 complete control), read-out: Plant response rating, Morningglory): 65%
pest or weed control at 62 g/ha (morningglory; Ipomoea, post-emergence, Postemergence, 62 g ai/ha, scale 0 to 100 (0 no effect, 100 complete control), read-out: Plant response rating, Morningglory): 75%
Ragweed plant response rating (ragweed; [8]): 45
pest or weed control at 16 g/ha (ragweed; Ambrosia artemisiifolia, post-emergence, 16 g ai/ha, postemergence, 0 is no effect, 100 is complete control, read-out: Plant response rating (0 to 100), Ragweed): 10%
pest or weed control at 125 g/ha (ragweed; Ambrosia artemisiifolia, post-emergence, 125 g ai/ha, postemergence, visual rating, scale 0 to 100 (0 no effect, 100 complete control), read-out: Plant response rating, Ragweed): 70%
pest or weed control at 62 g/ha (ragweed; Ambrosia artemisiifolia, post-emergence, Postemergence, 62 g ai/ha, scale 0 to 100 (0 no effect, 100 complete control), read-out: Plant response rating, Ragweed): 60%
Soybean plant response rating (soybean; [8]): 55
Soybean plant response rating (crop injury, 0-100 scale) at 16 g/ha (soybean; Glycine max, post-emergence, 16 g ai/ha, postemergence, 0 is no effect, 100 is complete control): 40%
Soybean plant response rating (crop injury, 0-100 scale) at 125 g/ha (soybean; Glycine max, post-emergence, 125 g ai/ha, postemergence, visual rating, scale 0 to 100 (0 no effect, 100 complete control), read-out: Plant response rating, Soybean): 60%
Soybean plant response rating (crop injury, 0-100 scale) at 62 g/ha (soybean; Glycine max, post-emergence, Postemergence, 62 g ai/ha, scale 0 to 100 (0 no effect, 100 complete control)): 60%
Oilseed Rape plant response rating (oilseed rape; [8]): 55
plant injury at 16 g/ha (oilseed rape; Brassica napus, post-emergence, 16 g ai/ha, postemergence, 0 is no effect, 100 is complete control, read-out: Plant response rating (0 to 100), Oilseed Rape): 10%
plant injury at 125 g/ha (oilseed rape; Brassica napus, post-emergence, 125 g ai/ha, postemergence, visual rating, scale 0 to 100 (0 no effect, 100 complete control), read-out: Plant response rating, Oilseed Rape): 60%
plant injury at 62 g/ha (oilseed rape; Brassica napus, post-emergence, Postemergence, 62 g ai/ha, scale 0 to 100 (0 no effect, 100 complete control), read-out: Plant response rating, Oilseed Rape): 60%

FCc1cccc(Oc2ncc(Cl)cn2)c1-n1cc(I)cn1 [Compound 245]
Plant response rating, Blackgrass (blackgrass; [6]): 30
Plant response rating, Blackgrass (blackgrass; 125 g ai/ha, 0 to 100 scale, 0 no effect, 100 complete control): 70
Plant response rating, Barnyardgrass (barnyardgrass): 0
Plant response rating (0 to 100), Wheat (wheat, winter; [2]): 0
Wheat plant response rating (wheat, winter; [8]): 0
Plant response rating, Wheat (wheat, winter; [3]): 5
Plant response rating, Wheat (wheat, winter; [9]): 0
Plant response rating (0 to 100), Lambsquarters (lambsquarters; [2]): 50
Lambsquarters plant response rating (lambsquarters; [8]): 70
Plant response rating, Lambsquarters (lambsquarters; [3]): 98
Plant response rating, Lambsquarters (lambsquarters; [9]): 80
Plant response rating (0 to 100), Morningglory (morningglory; [2]): 5
Morningglory plant response rating (morningglory; [8]): 30
Plant response rating, Morningglory (morningglory; [3]): 85
Plant response rating, Morningglory (morningglory; [9]): 65
Plant response rating (0 to 100), Ragweed (ragweed; [2]): 35
Ragweed plant response rating (ragweed; [8]): 40
Plant response rating, Ragweed (ragweed; [3]): 60
Plant response rating, Ragweed (ragweed; [9]): 45
Plant response rating (0 to 100), Soybean (soybean; [2]): 40
Soybean plant response rating (soybean; [8]): 60
Plant response rating, Soybean (soybean; [3]): 90
Plant response rating, Soybean (soybean; [9]): 60
Plant response rating (0 to 100), Oilseed Rape (oilseed rape; [2]): 40
Oilseed Rape plant response rating (oilseed rape; [8]): 50
Plant response rating, Oilseed Rape (oilseed rape; [3]): 80
Plant response rating, Oilseed Rape (oilseed rape; [9]): 50
